The record followed here is patent US10428055B2, “Substituted piperidines having GPR119 agonistic activity” (DONG-A ST CO., LTD., priority 2014, dated 2019).

The target of this experiment is T1, Human GPR119 (Homo sapiens, UniProt Q8TDV5).
T1 construct: host or cells: HEK293 (ATCC)
T1 sequence (Q8TDV5 1-335): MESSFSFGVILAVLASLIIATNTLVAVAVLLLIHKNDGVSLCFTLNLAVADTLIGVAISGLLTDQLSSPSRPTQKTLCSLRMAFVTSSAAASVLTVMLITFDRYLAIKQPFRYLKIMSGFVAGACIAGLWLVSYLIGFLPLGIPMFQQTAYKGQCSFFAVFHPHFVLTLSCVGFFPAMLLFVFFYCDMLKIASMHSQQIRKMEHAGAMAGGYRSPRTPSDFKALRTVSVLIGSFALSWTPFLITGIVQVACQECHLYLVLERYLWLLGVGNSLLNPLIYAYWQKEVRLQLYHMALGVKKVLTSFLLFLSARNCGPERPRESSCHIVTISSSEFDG
The experiment in a line: Human GPR119 activation assay (cAMP, HTRF). The format is cell-based. To be noted: 1 h, HEK293 cells transiently expressing human GPR119, relative to maximum effect of OEA, read-out: hGPR119 activation ability (cAMP assay) Relative Response % vs OEA; for Emax at 0.001 µM: 1 nM; for Emax at 0.01 µM: 10 nM. The source says: <Experimental Example 1>Human GPR119 activation assay
Human GPR119 was temporarily expressed on cells, thereby quantifying the amount of cyclic adenosine 3′,5′-monophosphate (cAMP) increased upon activating GPR119 by the compound of the present invention, using the product from Cysbio, by a method of HTRF (homogeneous time resolved fluorescence), and such quantification was used to refer to efficacy on GPR119 activation.
Human GPR119 expression vector (Origene) was overexpressed in […] renal epithelial cells (HEK293) (ATCC), and the cells were stabilized for 48 hours. With a solution of 11.1 mM glucose, 0.1% bovine serum albumin, and 0.5 mM IBMX (3-isobutyl-1-methylxanthine) which is a phosphodiesterase inhibitor being added to a KRBH (Krebs-Ringer Bicarbonate HEPES; Hou ZQ. et al., Mol Cell Endocrinol, 2008(291):71-78) buffer, the cells were pre-treated for 10 minutes. Thereafter, the cells were treated with the same solution containing a drug for 60 minutes, then the supernatant was removed, and the increase in cAMP in cells was quantified using a Cysbio cAMP HiRange kit.
As to the maximum efficacy of compounds tested, multiple concentration assessment for the compounds of the present invention was carried out, thereby assessing the relative activation level (%) to the maximum effect of oleoylethanolamide (OEA), an endogenous ligand of GPR119.
In general terms: In TR-FRET formats the signal depends on donor and acceptor labels being close together.

For the compound `CC(C)c1nnc(-c2c(F)cc(OCCCC3CCN(c4ccc(C(F)(F)F)cn4)CC3)cc2F)s1` [Example 65, 2-(2,6-difluoro-4-(3-(1-(5-(trifluoromethyl)pyridin-2-yl)piperidin-4-yl)propoxy)phenyl)-5-isopropyl-1,3,4-thiadiazole], the Emax at 0.001 µM turned out to be 78.1% and the Emax at 0.01 µM came to 189%.
For the compound `CC(C)c1nc(-c2c(F)cc(OCCCC3CCN(c4ncc(Br)cn4)CC3)cc2F)no1` [Example 29, 3-(4-(3-(1-(5-bromopyrimidin-2-yl)piperidin-4-yl)propoxy)-2,6-difluorophenyl)-5-isopropyl-1,2,4-oxadiazole], the Emax at 0.001 µM was 75.3% and the Emax at 0.01 µM came to 173%.
For the compound `CCCc1nc(-c2c(F)cc(OCCCC3CCN(c4ncc(CC)cn4)CC3)cc2F)no1` [Example 14, 3-(4-(3-(1-(5-ethylpyrimidin-2-yl)piperidin-4-yl)propoxy)-2,6-difluorophenyl)-5-propyl-1,2,4-oxadiazole], the Emax at 0.001 µM is 96% and the Emax at 0.01 µM stood at 131%.
On the same counts, the results for `CCCc1cnc(N2CCC(CCCOc3cc(F)c(-c4nnc(C(C)C)s4)c(F)c3)CC2)nc1` [Example 61, 2-(2,6-difluoro-4-(3-(1-(5-propylpyrimidin-2-yl)piperidin-4-yl)propoxy)phenyl)-5-isopropyl-1,3,4-thiadiazole] are 98.1% and 186%.
With `CC(C)Cc1nc(-c2cnc(N3CCC(CCCOc4cc(F)c(-c5noc(C(C)(C)CO)n5)c(F)c4)CC3)nc2)no1` [Example 36, 2-(3-(2,6-difluoro-4-(3-(1-(5-(5-isobutyl-1,2,4-oxadiazol-3-yl)pyrimidin-2-yl)piperidin-4-yl)propoxy)phenyl)-1,2,4-oxadiazol-5-yl)-2-methylpropan-1-ol], the Emax at 0.001 µM amounted to 66.4% and the Emax at 0.01 µM came to 174%.
On to `CCc1cnc(N2CCC(CCCOc3cc(F)c(-c4nnc(NC(C)C)o4)c(F)c3)CC2)nc1` [Example 45, 5-(4-(3-(1-(5-ethylpyrimidin-2-yl)piperidin-4-yl)propoxy)-2,6-difluorophenyl)-N-isopropyl-1,3,4-oxadiazol-2-amine], for which the Emax at 0.001 µM is 156% and the Emax at 0.01 µM was found to be 330%.
As to `CCc1cnc(N2CCC(CCCOc3cc(F)c(-c4noc(C[C@H](C)O)n4)c(F)c3)CC2)nc1` [Example 21, (S)-1-(3-(4-(3-(1-(5-ethylpyrimidin-2-yl)piperidin-4-yl)propoxyl)-2,6-difluorophenyl)-1,2,4-oxadiazol-5-yl) propan-2-ol], the Emax at 0.001 µM was found to be 160% and the Emax at 0.01 µM turned out to be 336%.
In the same order, the values of `CCCc1noc(N2CCC(CCCOc3cc(F)c(-c4nnc(CC)o4)c(F)c3)CC2)n1` [Example 53, 5-(4-(3-(3,5-difluoro-4-(5-ethyl-1,3,4-oxadiazol-2-yl)phenoxy)propyl)piperidin-1-yl)-3-propyl-1,2,4-oxadiazole] are 94.3% and 154%.
Turning to `CCCc1noc(N2CCC(CCCOc3cc(F)c(-c4nnc(C)o4)c(F)c3)CC2)n1` [Example 52, 5-(4-(3-(3,5-difluoro-4-(5-methyl-1,3,4-oxadiazol-2-yl)phenoxy)propyl)piperidin-1-yl)-3-propyl-1,2,4-oxadiazole], the Emax at 0.001 µM worked out at 191% and the Emax at 0.01 µM was determined as 295%.
For the compound `CCc1cnc(N2CCC(CCCOc3cc(F)c(C4=N[C@@H](C)CO4)c(F)c3)CC2)nc1` [Example 3, (S)-2-(4-(3-(1-(5-ethylpyrimidin-2-yl)piperidin-4-yl)propoxy)-2,6-difluorophenyl)-4-methyl-4,5-dihydrooxazole], the Emax at 0.001 µM turned out to be 192% and the Emax at 0.01 µM turned out to be 47.8%.
On the same counts, the results for `CCc1cnc(N2CCC(CCCOc3cc(F)c(C4=N[C@H](C)CO4)c(F)c3)CC2)nc1` [Example 2, (R)-2-(4-(3-(1-(5-ethylpyrimidin-2-yl)piperidin-4-yl)propoxy)-2,6-difluorophenyl)-4-methyl-4,5-dihydrooxazole] are 34.8% and 113%.
In the case of `Cc1nc(-c2c(F)cc(OCCCC3CCN(c4nc(C(C)C)no4)CC3)cc2F)no1` [Example 39, 3-(2,6-difluoro-4-(3-(1-(3-isopropyl-1,2,4-oxadiazol-5-yl)piperidin-4-yl)propoxy)phenyl)-5-methyl-1,2,4-oxadiazole], the Emax at 0.001 µM turned out to be 120% and the Emax at 0.01 µM amounted to 201%.
In the same order, the values of `CCCc1noc(N2CCC(CCCOc3cc(F)c(-c4nnc(C(C)C)o4)c(F)c3)CC2)n1` [Example 54, 5-(4-(3-(3,5-difluoro-4-(5-isopropyl-1,3,4-oxadiazol-2-yl)phenoxy)propyl)piperidin-1-yl)-3-propyl-1,2,4-oxadiazole] are 75.1% and 241%.
With `CCc1cnc(N2CCC(CCCOc3cc(F)c(-c4nnc(C(C)C)o4)c(F)c3)CC2)nc1` [Example 44, 2-(4-(3-(1-(5-ethylpyrimidin-2-yl)piperidin-4-yl)propoxy)-2,6-difluorophenyl)-5-isopropyl-1,3,4-oxadiazole], the Emax at 0.001 µM came out at 493% and the Emax at 0.01 µM turned out to be 830%.
On the same counts, the results for `CCc1nnc(-c2c(F)cc(OCCCC3CCN(c4cnc(Cl)cn4)CC3)cc2F)o1` [Example 50, 2-(4-(3-(1-(5-chloropyrazin-2-yl)piperidin-4-yl)propoxy)-2,6-difluorophenyl)-5-ethyl-1,3,4-oxadiazole] are 120% and 308%.
In the same order, the values of `CC(C)c1noc(N2CCC(CCCOc3cc(F)c(-c4noc(CO)n4)c(F)c3)CC2)n1` [Example 41, (3-(2,6-difluoro-4-(3-(1-(3-isopropyl-1,2,4-oxadiazol-5-yl)piperidin-4-yl)propoxy)phenyl)-1,2,4-oxadiazol-5-yl)methanol] are 74.4% and 203%.
In the same order, the values of `CCCCCc1cnc(N2CCC(CCCOc3cc(F)c(-c4nnc(C(C)C)s4)c(F)c3)CC2)nc1` [Example 62, 2-(2,6-difluoro-4-(3-(1-(5-pentylpyrimidin-2-yl)piperidin-4-yl)propoxy)phenyl)-5-isopropyl-1,3,4-thiadiazole] are 88.8% and 169%.
`CCc1nnc(-c2c(F)cc(OCCCC3CCN(c4nc(C(C)C)no4)CC3)cc2F)o1` [Example 56, 5-(4-(3-(4-(5-ethyl-1,3,4-oxadiazol-2-yl)-3,5-difluorophenoxy)propyl)piperidin-1-yl)-3-isopropyl-1,2,4-oxadiazole]: the Emax at 0.001 µM worked out at 265% and the Emax at 0.01 µM is 373%.
On the same counts, the results for `CCc1cnc(N2CCC(CCCOc3cc(F)c(-c4noc(CO)n4)c(F)c3)CC2)nc1` [Example 17, (3-(4-(3-(1-(5-ethylpyrimidin-2-yl)piperidin-4-yl)propoxy)-2,6-difluorophenyl)-1,2,4-oxadiazol-5-yl)methanol] are 116% and 216%.
Consider `CC(C)c1nnc(-c2c(F)cc(OCCCC3CCN(c4ncc(C(F)(F)F)cn4)CC3)cc2F)o1` [Example 48, 2-(2,6-difluoro-4-(3-(1-(5-(trifluoromethyl)pyrimidin-2-yl)piperidin-4-yl)propoxy)phenyl)-5-isopropyl-1,3,4-oxadiazole], for which the Emax at 0.001 µM amounted to 163% and the Emax at 0.01 µM was determined as 441%.
